Earlier results, collected in patent US7442671B2, “O-phenylphenol/alkoxylated amine wood protection compositions” (Contechem Inc., priority 2004, dated 2008).

SMILES: Oc1ccccc1-c1ccccc1 [O-phenylphenol, o-phenylphenol]
- solubility in water: only slightly soluble in water
